Laboratory results reported in patent publication US20130196937A1, “AGE PRODUCTION INHIBITOR” (ORYZA OIL & FAT CHEMICAL CO., LTD., priority 2010, published 2013).
Marks after values point to notes of the source that are not given here.

Legend:
AGE production = test: Test 1: AGE production inhibition (D-glucose + bovine serum albumin, fluorescence); format: biochemical
Procedure: Put the sample solution ([…]) of the concentration of cherry-blossom extract (Example 1) and cherry-leaf extract (Example 2), as shown in the chart, below, into a phosphate buffer solution (pH: […]) containing D-glucose (10%) and into bovine serum albumin (fraction 5.1%) and leave it out at a temperature of 60 degrees centigrade for two days. Dilute the reaction solution with distilled water until the intensity of fluorescent light reaches about 500, thus determining its intensity (measurement wavelength: […]). Also, the extract is to be diluted with distilled water, and the substance, after being dissolved in DMSO (dimethyl sulphoxide), is to be diluted with a phosphate buffer solution until DMSO concentration is of 1%. Each value in Chart 1 indicates an average value with standard error of the three examples. Asterisks (*, **) mean a significant difference (i.e. *: p<0.05; **: p<0.01) between the processed samples and the unprocessed samples as determined by Dunnett's Multiple Comparison Test.

[1] = tested on: normal diploid fibroblast (PDL22-32 cells); test: Test 2-2: fibroblast apoptosis caused by CML-collagen (Caspase Assay), extracts and substances; format: cell-based, human
Procedure: 50 mg of 1 mM HCL was added to 25 mL of bovine skin-derived collagen and dissolved for two hours incubation at the temperature of 37 degrees centigrade, and was shaken as needed. Then, PBS (pH7.4 25 mL) was added to sodium cyanoborohydride (1.42 g) and to glyoxylic acid (0.9 g) and mixed so as to react at the temperature of 37 degrees centigrade for 24 hours. The reaction solution was then put into a dialysis cell of 10,000 molecular mass for a dialysis-with-water test to be conducted for one day and for a dialysis-with-PBS to be conducted for six days. CML-collagen (21 mg) was obtained by freeze-drying the dialysate.
The fibroblast (7×10^4 cells) was suspended in the D-MEM medium containing FCS (0.5%), penicillin (100 units/mL) and streptomycin ([…]) to be seeded within 96-well plates ([…]). After 24 hours of culture, the dissolved CML-collagen solution (2 mg·mL) and the sample solution ([…]) were added to the medium and cultured for 24 hours. Collagen, instead of CML-collagen, was added to Normal group.
The rate of cell survival was measured by MIT Assay. The result is shown in Chart 2. At the same time, a microscopic test was done, of which the result of formazan formation of fibroblast (×100) is shown in FIG. 2. Apoptosis was identified by measuring active caspase-3/7 by the fluorescence method, of which the result is shown in Chart 3, below. Each value of Charts 2 and 3 is indicated by the average value with standard error of the six examples. Asterisks (*, **) mean a significant difference (i.e. *: p<0.05; **: p<0.01) between the unprocessed samples and Dunnett's multiple comparison test, and f represents p<0.05 by Fisher's PLSD Test.
Here, in Test 2-2, respecting the cherry-blossom extract (Example 1), and the cherry-leaf extract (Example 2) and the seven substances contained in the cherry-blossom extract (Example 1): 1-O-(E)-Caffeoyl-β-D-glucopyranoside, 1-O-(E)-Coumaroyl-β-D-Glucopyranosideand, 1-O-(E)-Cinnamoyl-β-D-glucopyranoside, Kaempferol 3-O-3-D-glucopyranoside, Quercetin 3-O-β-D-glucopyranoside, Kaempferol 3-O-(6″-malony)-β-D-glucopyranoside and Quercetin 3-O-(6″-malony)-β-D-glucopyranoside (Examples 3 to 9), the activity against fibroblast apoptosis, caused by CML-collagen, was identified in the same way as in Test 2-1.
Also, in Test 2-2, PDL22-32 cells were used as the normal diploid fibroblast. As a target for comparison, aminoguanidine hydrochloride which is a medicine for the glycation inhibitor was examined in the same way. Each value of Chart 4 indicates an average value with standard error of the five examples. Asterisks (*, **) mean a significant difference (i.e. *: p<0.05; **: p<0.01) between processed samples and unprocessed samples with CML-collagen, determined by Dunnett's Multiple Comparison Test.

human diploid fibroblast = test: Test 4: AGE production within the fibroblast processed with glyoxal (Western Blotting); format: cell-based; settings: 1 and 10 mg/mL, 5 days
Procedure: Test 4 examined the activity of the cherry blossom-extract (Example 1) and of the 1-O-(E)-Caffeoyl-β-D-glucopyranoside (Example 3) against the production of AGE (carbon methyl lysine protein) within the fibroblast (human diploid fibroblast) which was processed with glyoxal.
Human diploid fibroblast (passage number 30) was suspended in a D-MEM complete culture media, and 20 mL each was seeded within a cell culture dish of 14 cm in diameter. After 48 hours of culture, samples of various concentrations and of […] of glyoxal were added to 80%-confluent cells and cultured for 5 days. After that, each sample was collected and crushed. Then, protein […] was examined by the Western Blotting method using an anti-AGE antibody to detect AGE. […] In FIG. 6, CaGlu means 1-O-(E)-Caffeoyl-β-D-glucopyranoside (Example 3).

NB1 RGB fibroblast = test: Test 3: collagen grating formation of fibroblast glycosylated by glyoxal; format: cell-based, human
Procedure: When fibroblast is cultured in the presence of collagen solution, collagen grating formation can be identified. In a similar test, when adding fibroblast that has been glycosylated by the intermediate product of glycation (glyoxal), it is known that the collagen grating formation is inhibited.
The infant-derived NB1 RGB (passage number 22) was suspended in the D-MEM complete media (1.86×10^4 cells/mL). 15 mL each of it was seeded within each cell-culture dish of 14 cm in diameter. After 24 hours, each sample and glyoxal were added until the molecular mass of each dish became […] and incubate the dishes for five days.
Bovine skin-derived collagen (25 mg) was dissolved in 0.1% acetic acid (8.3 mL). Then, a 10-times concentration of Hanks solution ([…]) was added. Then, 0.1% acetic acid (3.5 mL) was added. 1M NaOH was added to neutralize the solution, which was sterilized by filteration to obtain the collagen solution.
The mixed solution of collected fibroblast (5.4×10^4 cell) was suspended in FCS ([…]), and collagen ([…]) was seeded within a 24-well cell-culture plate and allowed to culture for 24 hours and 48 hours. Each culture was observed through a microscope and by the naked eye. For the purpose of comparison, aminoguanidin hydrochloride which is an anti-glycation agent was also examined in the same way.

IC50 of AGE production inhibition (AGE production)	Compound	Inhibition Ratio (%) of AGE production (AGE production; 1 μg/mL)	Inhibition Ratio (%) of AGE production (AGE production; 3 μg/mL)	Inhibition Ratio (%) of AGE production (AGE production; 10 μg/mL)	Inhibition Ratio (%) of AGE production (AGE production; 30 μg/mL)	Inhibition Ratio (%) of AGE production (AGE production; 100 μg/mL)	Inhibition Ratio (%) of AGE production (AGE production; 300 μg/mL)	Inhibition Ratio (%) of AGE production (AGE production; 300 μg/mL, listed as Example 3)	Inhibition Ratio (%) of fibroblast apoptosis (Caspase Assay) ([1]; 1 μg/mL)	Inhibition Ratio (%) of fibroblast apoptosis (Caspase Assay) ([1]; 3 μg/mL)	Inhibition Ratio (%) of fibroblast apoptosis (Caspase Assay) ([1]; 10 μg/mL)	production of AGE within the fibroblast (anti-AGE antibody, FIG. 6) (human diploid fibroblast)	AGE inhibitory activity in words, related compound with less hydroxyl compared with Example 3 (AGE production)	Inhibition Ratio (%) of fibroblast apoptosis (Caspase Assay) ([1]; 100 μg/mL)	fibroblast shape, microscopic image after 24 hours of culture (FIG. 4) (NB1 RGB fibroblast)	amount of collagen grating formation (naked eye, FIG. 3), compared to the control group (NB1 RGB fibroblast; 100 mg/mL, with glyoxal)
>300 µg/mL	O=C(/C=C/c1ccc(O)c(O)c1)O[C@@H]1OC(CO)[C@@H](O)C(O)C1O (stereo partly drawn) [1-O-(E)-Caffeoyl-β-D-glucopyranoside]	−3.3 ± 0.1%	0.9 ± 0.1%	10.7 ± 0.1** %	19.5 ± 0.3** %	25.0 ± 0.3** %	30.0 ± 0.4** %	30%	26.2 ± 0.5* %	37.6 ± 1.2%	72.2 ± 2.7* %	inhibited the production of AGE				
>300 µg/mL	O=C(/C=C/c1ccccc1)O[C@@H]1OC(CO)[C@@H](O)C(O)C1O (stereo partly drawn) [1-O-(E)-Cinnamoyl-β-D-glucopyranoside]	−8.4 ± 0.1%	−10.4 ± 0.1%	−10.9 ± 0.4* %	−7.8 ± 0.1%	5.7 ± 0.1%	23.3 ± 0.4** %		−11.8 ± 0.3%	19.7 ± 0.9%	48.6 ± 2.9%		reduced			
>300 µg/mL	O=C(/C=C/c1ccc(O)cc1)O[C@@H]1OC(CO)[C@@H](O)C(O)C1O (stereo partly drawn) [1-O-(E)-Coumaroyl-β-D-glucopyranoside]	−3.2 ± 0.1%	−8.2 ± 0.1** %	−8.6 ± 0.1** %	−8.9 ± 0.1** %	−3.7 ± 0.1** %	11.6 ± 0.1** %		17.2 ± 0.5%	7.1 ± 0.2%	51.1 ± 1.9%		reduced			

Compound	IC50 of AGE production inhibition (AGE production)	Inhibition Ratio (%) of AGE production (AGE production; 1 μg/mL)	Inhibition Ratio (%) of AGE production (AGE production; 3 μg/mL)	Inhibition Ratio (%) of AGE production (AGE production; 10 μg/mL)	Inhibition Ratio (%) of AGE production (AGE production; 30 μg/mL)	Inhibition Ratio (%) of AGE production (AGE production; 100 μg/mL)	Inhibition Ratio (%) of AGE production (AGE production; 300 μg/mL)	Inhibition Ratio (%) of AGE production (AGE production; 300 μg/mL, listed as Example 3)	Inhibition Ratio (%) of fibroblast apoptosis (Caspase Assay) ([1]; 1 μg/mL)	Inhibition Ratio (%) of fibroblast apoptosis (Caspase Assay) ([1]; 3 μg/mL)	Inhibition Ratio (%) of fibroblast apoptosis (Caspase Assay) ([1]; 10 μg/mL)	production of AGE within the fibroblast (anti-AGE antibody, FIG. 6) (human diploid fibroblast)	AGE inhibitory activity in words, related compound with less hydroxyl compared with Example 3 (AGE production)	Inhibition Ratio (%) of fibroblast apoptosis (Caspase Assay) ([1]; 100 μg/mL)	fibroblast shape, microscopic image after 24 hours of culture (FIG. 4) (NB1 RGB fibroblast)	amount of collagen grating formation (naked eye, FIG. 3), compared to the control group (NB1 RGB fibroblast; 100 mg/mL, with glyoxal)
Cl.N=C(N)NN [Aminoguanidine Hydrochloride, aminoguanidine hydrochloride, reference compound]	138 µg/mL			1.4 ± 0.1%	18.1 ± 1.1%	42.6 ± 1.7** %	67.7 ± 1.6** %							104.8 ± 34* %	spherically shaped	showed no increase in the amount of grating formation
